Here are results for two compounds from US12622859B2, “Organic compounds” (GIVAUDAN SA, priority 2017, dated 2026).

One data set can be described thus: Stability in water. It counts as physicochemical. The source says:
(§1) Consequently, the extract is preferably obtained by extracting the compounds from plant material using an alcohol, and more particularly ethanol. It is particularly preferred if the alcohol is water-free.

A short description of a further data set: Solubility in water. It counts as physicochemical.
Source text: as §1

Each structure is given as a SMILES string.

For the compound `C[C@@H]1O[C@@H](O[C@@H]2[C@H]3O[C@@H](c4ccc(O)c(O)c4)CO[C@@H]3O[C@H](CO)[C@H]2OC(=O)/C=C/c2ccc(O)c(O)c2)[C@H](O)[C@H](O)[C@H]1O` [crenatoside], the stability in water result in “Stability in water” is on record as “unstable in water”. Further, in the data set “Solubility in water”, the solubility in water result is “water-soluble”.
For `C[C@@H]1O[C@@H](O[C@@H]2[C@@H](O)[C@H](OCCc3ccc(O)c(O)c3)O[C@H](CO)[C@H]2OC(=O)/C=C/c2ccc(O)c(O)c2)[C@H](O)[C@H](O)[C@H]1O` [acteoside] the same measures were “unstable in water” and “water-soluble”.
